Data from patent US9447075B2, “Pyridazine derivatives as EAAT2 activators” (The Brigham and Women's Hospital, Inc., priority 2011, dated 2016).
“And” between values parts separate entries of the source, which are not always exact repeats. Equal entries are not always repeated.

System: EAAT2
Test: EAAT2 protein levels in PA-EAAT2 cells by Western blot
Type: cell-based, human
Details: for Fold increase for EAAT2, 24 h / Fold increase for EAAT2, 4 h: compound 10 μM, PA-EAAT2 cells, relative to DMSO controls, na = not active; for Fold increase for EAAT2, 24 h: 24 h incubation; for Fold increase for EAAT2, 4 h: 4 h incubation; for SAR comparison of activity on EAAT2 protein levels, in words: relative to parent/comparator analogue, Tables 1-4; for Improvement of potency/activity compared to 1: compared to compound 1, Table 4
Procedure: All of the derivates of 1 were initially evaluated in PA-EAAT2 cells^3 (a primary astrocyte line stably expressing EAAT2 mRNAs) following compound (10 μM) incubation for 4 and 24 h before harvesting and measuring EAAT2 levels by Western blot analysis. The fold increases in EAAT2 protein levels relative to DMSO controls are reported (Tables 1-4).
Characterization and efficacy studies of a compound, Compound 212320 (FIG. 6A) is shown. […] In the absence of serum, PA-EAAT2 cells express low amounts of EAAT2 protein, although the recombinant EAAT2 mRNA are expressed (translational silencing); however, EAAT2 protein levels are increased when an activator is added to the culture (translational activation). This cell line was used for high-throughput screening to identify EAAT2 translational activators. To prioritize candidate compounds, we initially evaluated activation of EAAT2 protein in PA-EAAT2 cells. Promising compounds were further evaluated in primary dissociated neuron and astrocyte mixed cultures and then in mice. FIG. 6 presents the characterization of Compound 212320 in PA-EAAT2 cells. Compound 212320 increased EAAT2 protein levels in a dose—(FIG. 6B) and time—(FIG. 6C) dependent manner. Importantly, the induction occurred in a short amount of time (within 1-2 hr) and was sustained even up to 72 hr (data not show). Additionally, induction occurred at low nanomolar concentrations. […] (FIG. 6D).

| Compound | Fold increase for EAAT2, 24 h | Fold increase for EAAT2, 4 h [fold] | SAR comparison of activity on EAAT2 protein levels, in words | Improvement of potency/activity compared to 1 |
| --- | --- | --- | --- | --- |
| Fc1ccc(COc2ccc(-c3ccccn3)nn2)c(F)c1 [Compound 8-6] | 2.3 ± 0.6 fold | – | – | – |
| Cc1ccc(CSc2ccc(-c3ccccn3)nn2)cc1 [Compound 7-10] | 2.6 ± 0.4 fold | 2.1 ± 1.1 | – | – |
| Fc1ccc(CSc2ccc(-c3ccccn3)nn2)c(F)c1 [Compound 7-16] | 3.8 ± 0.8 fold | 2.4 ± 1.5 | improved activity | – |
| Cc1ccccc1COc1ccc(-c2ccccn2)nc1 [Compound 15] | – | 1.5 ± 0.3 | – | – |
| Fc1cccc(Cl)c1CSc1ccc(-c2cccnc2)nn1 [Compound 7-1] | 2.3 ± 0.8 fold | – | reduced activity | – |
| c1ccc(CSc2ccc(-c3ccccn3)nn2)cc1 [Compound 7-12] | 3.0 ± 0.4 fold and 3.0 ± 0.5 fold | 1.3 ± 0.2 | essentially the same potency as 1 | – |
| Clc1ccccc1CSc1ccc(-c2ccccn2)nn1 [Compound 7-7] | 4.0 ± 0.3 fold | 2.1 ± 1.4 | – | two-fold |
| Cc1ccccc1CCSc1ccc(-c2ccccn2)nn1 [Compound 7-32] | 2.8 ± 0.4 fold | 1.2 ± 0.3 | exception | – |
| O=S(=O)(Cc1c(F)cccc1Cl)c1ccc(-c2ccccn2)nn1 [Compound 9-1] | 2.8 ± 0.4 fold | 1.4 ± 0.3 | detrimental | – |
| Cc1ccc(CSc2ccc(-c3ccccn3)nn2)c(C)c1 [Compound 7-17] | 6.4 ± 1.0 fold | 1.9 ± 0.8 | increased potency | – |
| Cc1ccccc1CSc1ccc(-c2ccccn2)cn1 [Compound 22] | – | 1.3 ± 0.6 | – | – |
| Fc1ccc(CSc2ccc(-c3ccccn3)nn2)c(Cl)c1 [Compound 7-35] | 1.7 ± 0.4 fold | 1.6 ± 0.6 | – | – |
| Cc1ccc(Sc2ccc(-c3ccccn3)nn2)c(C)c1 [Compound 7-29] | 2.2 ± 0.3 fold | 1.2 ± 0.3 | decreased potency | – |
| Cc1ccc(CSc2ccc(-c3ccncc3)nn2)cc1 [Compound 7-11] | 2.4 ± 0.6 fold | 1.3 ± 0.1 | reduced activity | – |
| Cc1ccccc1CSc1ccc(-c2cccnc2)nn1 [Compound 7-5] | – | 1.5 ± 0.4 | reduced activity | – |
| Clc1ccc(CSc2ccc(-c3ccccn3)nn2)c(Cl)c1 [Compound 7-21] | – | 1.8 ± 0.5 | equivalent to 1 | – |
| Oc1ccc(-c2ccccn2)nn1 [Compound 5-1] | 1.6 ± 1.0 fold | 1.5 ± 0.5 | – | – |
| Cc1ccccc1CNC(=O)c1ccc(-c2ccccn2)nn1 [Compound 17-2] | 1.4 ± 0.2 fold | – | not tolerated | – |

| Compound | Fold increase for EAAT2, 24 h | Fold increase for EAAT2, 4 h [fold] | SAR comparison of activity on EAAT2 protein levels, in words | Improvement of potency/activity compared to 1 |
| --- | --- | --- | --- | --- |
| Cc1ccccc1CS(=O)(=O)c1ccc(-c2ccccn2)nn1 [Compound 9-2] | 1.1 ± 0.2 fold | 2.3 ± 0.4 | detrimental | – |
| c1ccc(CSc2ccc(-c3ccccn3)cc2)cc1 [Compound 19] | 1.1 ± 0.4 fold | 1.2 ± 0.5 | – | – |
| Cc1ccc(-c2ccc(SCc3c(F)cccc3Cl)nn2)cc1 [Compound 7-3] | 2.3 ± 0.7 fold | 1.2 ± 0.2 | – | – |
| Cc1ccccc1CSc1ccc(-c2ccccc2)nn1 [Compound 7-6] | 2.0 ± 0.4 fold | 1.1 ± 0.1 | reduced activity | – |
| CCSc1ccc(-c2ccccn2)nn1 [Compound 7-36] | 1.9 ± 0.9 fold | 1.6 ± 0.7 | essentially the same potency as 1 | – |
| Fc1cccc(Cl)c1CSc1ccc(-c2ccncc2)nn1 [Compound 7-2] | 1.9 ± 0.9 fold | – | reduced activity | – |
| c1ccc(-c2ccc(SC3CCCc4ccccc43)nn2)nc1 (racemic) [Compound 7-33] | 5.3 ± 1.1 fold | – | – | about 3 fold |
| Sc1ccc(-c2ccccn2)nn1 [Compound 6-1] | 2.0 ± 0.8 fold | – | essentially the same potency as 1 | – |
| Fc1ccc(CSc2ccc(-c3ccccn3)nn2)cc1 [Compound 7-24] | 2.6 ± 0.3 fold | 2.5 ± 0.6 | did not result in significant improvement | – |
| Cc1cc(C)c(CSc2ccc(-c3ccccn3)nn2)c(C)c1 [Compound 7-30] | 4.7 ± 0.5 fold | 1.7 ± 0.3 | increased potency | – |
| CCCNC(=O)c1ccc(-c2ccccn2)nn1 [Compound 17-1] | 1.2 ± 0.2 fold | – | not tolerated | – |
| Clc1ccc(Cl)c(CSc2ccc(-c3ccccn3)nn2)c1 [Compound 7-20] | 2.5 ± 0.4 fold | 1.4 ± 0.1 | equivalent to 1 | – |
| Cc1ccccc1COc1ccc(-c2ccccn2)nn1 [Compound 8-1] | 2.5 ± 0.5 fold | 2.0 ± 0.9 | – | – |
| Cc1ccc(CSc2ccc(-c3ccccn3)nn2)cc1 [Compound 7-28] | – | – | less potent | – |
| Fc1ccccc1CSc1ccc(-c2ccccn2)nn1 [Compound 7-23] | 3.1 ± 0.2 fold | 2.2 ± 0.1 | improved activity | – |
| Cc1cccc(C)c1COc1ccc(-c2ccccn2)nn1 [Compound 8-3] | 3.2 ± 1.4 fold | 2.1 ± 1.2 | – | – |
| Cc1ccc(COc2ccc(-c3ccccn3)nn2)c(C)c1 [Compound 8-7] | 2.0 ± 0.9 fold | – | – | – |
